Source: patent publication US8193169B2, “(20R)-2α-methyl-19,26,2-trinor-vitamin D analogs” (Wisconsin Alumni Research Foundation, priority 2006, dated 2012)

Assays:
HL-60 cells = test: HL-60 cell differentiation (nitro blue tetrazolium reduction); assay type: cell-based, human; conditions: for EC50: HL-60 cells, differentiation into monocytes, FIG. 2
Method: The study drugs were dissolved in ethanol and the concentrations determined using UV spectrophotometry. Serial dilutions were prepared so that a range of drug concentrations could be tested without changing the final concentration of ethanol (≦0.2%) present in the cell cultures.
Human promyelocytic leukemia (HL60) cells were grown in RPMI-1640 medium containing 10% fetal bovine serum. The cells were incubated at 37° C. in the presence of 5% CO2.
HL60 cells were plated at 1.2×10^5 cells/ml. Eighteen hours after plating, cells in duplicate were treated with drug. Four days later, the cells were harvested and a nitro blue tetrazolium reduction assay was performed (Collins et al., 1979; J. Exp. Med. 149:969-974). The percentage of differentiated cells was determined by counting a total of 200 cells and recording the number that contained intracellular black-blue formazan deposits. Verification of differentiation to monocytic cells was determined by measuring phagocytic activity (data not shown).

[1] = system: 24-hydroxylase (24Ohase) gene promoter; test: In vitro transcription assay, luciferase reporter in ROS 17/2.8 (bone) cells; assay type: cell-based; conditions: for EC50: ROS 17/2.8 cells, 24-hydroxylase promoter-luciferase, FIG. 3, read-out: EC50, transcriptional activity in bone cells
Method: Transcription activity was measured in ROS 17/2.8 (bone) cells that were stably transfected with a 24-hydroxylase (24Ohase) gene promoter upstream of a luciferase reporter gene (Arbour et al., 1998). Cells were given a range of doses. Sixteen hours after dosing the cells were harvested and luciferase activities were measured using a luminometer.
RLU=relative luciferase units.

[2] = Bone calcium mobilization (serum calcium) in vitamin D-deficient rats; assay type: in vivo, Sprague-Dawley rats; conditions: vitamin D-deficient rats on 0.02% Ca diet, FIG. 4
Method: (§1) Male, weanling Sprague-Dawley rats were placed on Diet 11 (0.47% Ca) diet+AEK oil for one week followed by Diet 11 (0.02% Ca)+AEK oil for 3 weeks. The rats were then switched to a diet containing 0.47% Ca for one week followed by two weeks on a diet containing 0.02% Ca. Dose administration began during the last week on 0.02% calcium diet. Four consecutive ip doses were given approximately 24 hours apart. Twenty-four hours after the last dose, blood was collected from the severed neck and the concentration of serum calcium determined as a measure of bone calcium mobilization. The first 10 cm of the intestine was also collected for intestinal calcium transport analysis using the everted gut sac method.

[3] = Intestinal calcium transport, everted gut sac method, in vitamin D-deficient rats; assay type: in vivo, Sprague-Dawley rats; conditions: 35,100 pmol/day ip for 4 consecutive days, FIG. 5
Method: as §1

[4] = target: T1, full-length recombinant rat vitamin D receptor (Rattus norvegicus, UniProt P13053); conditions: compared to 1,25(OH)2D3
T1 sequence (P13053 1-423): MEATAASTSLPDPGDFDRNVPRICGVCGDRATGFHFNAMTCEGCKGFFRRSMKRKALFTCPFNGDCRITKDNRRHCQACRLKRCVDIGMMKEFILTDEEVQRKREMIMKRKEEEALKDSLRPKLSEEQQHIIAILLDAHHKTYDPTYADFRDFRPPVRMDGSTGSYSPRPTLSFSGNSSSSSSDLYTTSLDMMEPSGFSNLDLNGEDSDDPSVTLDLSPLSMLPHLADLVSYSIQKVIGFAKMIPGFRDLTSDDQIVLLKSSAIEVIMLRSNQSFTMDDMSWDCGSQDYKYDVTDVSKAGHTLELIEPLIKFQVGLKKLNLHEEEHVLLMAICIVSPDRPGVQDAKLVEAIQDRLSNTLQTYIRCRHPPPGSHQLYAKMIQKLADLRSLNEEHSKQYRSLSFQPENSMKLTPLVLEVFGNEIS

[5] = target: T1, full-length recombinant rat vitamin D receptor; test: biochemical
[6] = compared to 1α,25-dihydroxyvitamin D3

SMILES	EC50 (HL-60 cells) [nM]	EC50 [1] [nM]	Bone calcium mobilization activity (serum calcium) ([2]; 780 pmol/day)	Serum calcium levels ([2]; all dosages)	EC50 (HL-60 cells; Homo sapiens) [nM]	HL-60 cell differentiation activity relative to 1α,25-dihydroxyvitamin D3 (times less activity) (HL-60 cells; [6]) [times]	Transcriptional activity in bone cells relative to 1α,25-dihydroxyvitamin D3 (times less) [1, 6]	Bone calcium mobilization activity (serum calcium) ([2]; 35,100 pmol/day ip for 4 consecutive days)	Intestinal calcium transport activity [3]	VDR binding potency relative to 1,25(OH)2D3 (times less potent) [4]	Ki [5] [nM]
C=C1/C(=C\C=C2/CCC[C@]3(C)[C@@H]([C@H](C)CCCC(C)(C)O)CC[C@@H]23)C[C@@H](O)C[C@@H]1O [1,25(OH)2D3, 1α,25-dihydroxyvitamin D3, reference compound]	2	0.3	significant activity	increased serum calcium levels at all dosages							
CC(CCCCO)C1CCC2C(=CC=C3CC(O)C(C)C(O)C3)CCCC21C [B-9, (20R)-2α-methyl-19,26,27-trinor-1α,25-dihydroxyvitamin D3]		10			30	~10	about 30 times	did not result in any mobilization of bone calcium	did not result in any activity	about 10 times	1
